Patent publication US9796707B2, “Piperazine derivatives for treating disorders” (The University of Nottingham, priority 2014, dated 2017)
Values belong to the molecule of their own block, whether it stands above or below them.

Assays:
[1] = mouse, in vivo
Protocol: Mice were treated for six days with 2 μg per eye SPHINX31 as eye drops, and ERG carried out using a Micron IV Ganzfield ERG system as recommended by the manufacturers instructions.
Scotopic ERG recordings were taken in dark adapted animals following stimulation with increasing intensities of green (FIGS. 20A, 20C, 20E, 20G) light (to activate M-cones and rods) or UV (FIGS. 20B, 20D, 20F, 20H) light (to activate S-cones and rods). […] ERG amplitude at different intensities of green (FIGS. 20C, 20E) or UV (FIGS. 20D, 20F) are shown for the A wave (FIGS. 20C, 20D) and B wave (FIGS. 20E, 20F).

[2] = Half life in human liver microsomes
Excerpt: We also tested the half life of these compounds when exposed to human liver microsomes.

[3] = tested on: SRSF1 nuclear localisation in PC3 prostate cancer cells; assay: SRSF1 localisation by immunofluorescence
[4] = tested on: SRSF1 nuclear localisation in MDA-MB231 cells; assay: SRSF1 localisation by immunofluorescence
[5] = assay type: cell-based
Excerpt: To test whether compounds of Formula (I) are safe to administer to patients we began a basic safety test of these compounds in vitro.

[6] = tested on: choroidal neovascularisation; details: mouse CNV, eye drops, previously shown; cited from earlier work
[7] = Scleral permeability, modified Ussing chamber; assay type: in vitro ADME; details: rabbit
Protocol: Scleral permeability was measured using a modified Ussing chamber assembly in isotonic assay buffer (pH 7.4). Rabbit or porcine excised eye tissues were mounted in the chambers such that the episcleral side faced the donor chamber and the retinal side faced the receiver chamber. The chambers were filled with equal volumes of assay buffer, with (donor side) or without (receiver side) 1 μg/ml compound. After 4 or 24 hours tissue was removed from the chamber and the receiver side (“vitreous”) sampled. Tissue was dissected into sclera, choroid/RPE, and retina and homogenised.
After 0, 4 or 24 hours, the fluid from the bottom chamber (vitreous) and the retinal tissue was isolated and compounds purified by acetonitrile extraction and HPLC.

neovascular AMD = details: 0.5 mg monthly, at one year; cited from earlier work

Molecule: O=C(Nc1cc(C(F)(F)F)ccc1N1CCN(Cc2ccccn2)CC1)c1ccc(-c2ccncc2)o1 [Compound 12]
effect on scotopic or photopic activity [1]: No effect
solubility in water of salt forms (Solubility in water): more freely soluble in water
Half life [2]: 1.025 h
SRSF1 localisation [3]: inhibited cellular localisation
SRSF1 localisation [4]: inhibited cellular localisation

solubility in water of salt forms (Solubility in water): more freely soluble in water
Molecule: O=C(Nc1cc(C(F)(F)F)ccc1N1CCN(Cc2cccnc2)CC1)c1ccc(-c2ccncc2)o1 [Compound 13]

solubility in water of salt forms (Solubility in water): more freely soluble in water
Molecule: O=C(Nc1cc(C(F)(F)F)ccc1N1CCN(Cc2ccncc2)CC1)c1ccc(-c2ccncc2)o1 [Compound 14]

Molecule: CN(C)CCN1CCN(c2ccc(C(F)(F)F)cc2NC(=O)c2ccc(-c3ccncc3)o2)CC1 [SPHINX7]
toxic doses [5]: greater than 10 μM

Molecule: Cc1ccc(C(=O)Nc2cc(C(F)(F)F)ccc2N2CCOCC2)o1 [SPHINX]
eye drop concentration of maximum effect [6]: 10 µg/mL

Molecule: O=C(Nc1cc(C(F)(F)F)ccc1N1CCCCC1)c1ccncc1 [SRPIN340]
eye drop concentration of maximum effect [6]: 10 µg/mL

detection in retina ([7]; 4 hrs): could not
detection in vitreous (bottom chamber) ([7]; 4 hrs): could not
detection in vitreous (bottom chamber) ([7]; 24 hours): detected
Molecule: Cc1ccc(Nc2nccc(N(C)c3ccc4c(C)n(C)nc4c3)n2)cc1S(N)(=O)=O [pazopanib]

B1: Lucentis: novel humanized anti-VEGF antibody fragment (antibody, chains of the INN, looked up, V domains shown)
VH: EVQLVESGGGLVQPGGSLRLSCAASGYDFTHYGMNWVRQAPGKGLEWVGWINTYTGEPTYAADFKRRFTFSLDTSKSTAYLQMNSLRAEDTAVYYCAKYPYYYGTSHWYFDVWGQGTLVTVSS
VL: DIQLTQSPSSLSASVGDRVTITCSASQDISNYLNWYQQKPGKAPKVLIYFTSSLHSGVPSRFSGSGSGTDFTLTISSLQPEDFATYYCQQYSTVPWTFGQGTKVEIK
modifications: Fab
notes: novel humanized anti-VEGF antibody fragment
patients who maintained visual acuity (loss of <15 letters) (neovascular AMD): approximately 95%
patients with improved vision (gain of ≧15 letters) (neovascular AMD): ≤ 40%
